# pEC50: −log10 of the molar value.
# Columns and labels:
# Type in all cases: cell-based
# Human GPR120 short form [1] = target: T1, Human GPR120 short form (Homo sapiens, UniProt Q5NUL3); experiment: Human GPR120 calcium flux assay, Procedure Calcium B; conditions: HEK-293 cells expressing human GPR120 short form, 4200 cells/well, FLIPR
# T1 construct: expressed in transfected cells
# T1 sequence (Q5NUL3 1-361): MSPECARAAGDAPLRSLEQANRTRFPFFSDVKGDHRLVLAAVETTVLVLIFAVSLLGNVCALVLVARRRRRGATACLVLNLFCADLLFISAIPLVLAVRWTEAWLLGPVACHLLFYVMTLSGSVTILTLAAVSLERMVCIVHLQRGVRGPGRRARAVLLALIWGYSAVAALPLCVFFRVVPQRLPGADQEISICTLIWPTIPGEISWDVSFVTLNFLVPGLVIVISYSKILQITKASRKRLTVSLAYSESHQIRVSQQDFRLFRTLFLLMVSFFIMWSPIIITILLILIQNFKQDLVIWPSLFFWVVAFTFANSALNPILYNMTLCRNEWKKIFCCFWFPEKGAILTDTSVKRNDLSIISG
# [2] = target: T2, long form of human GPR120 (Homo sapiens, UniProt Q5NUL3); experiment: Human GPR120 DiscoveRx PathHunter β-Arrestin assay, Procedure β-arrestin A; conditions: PathHunter CHO-K1 GPR120 β-Arrestin cell line, 3000 cells per well
# T2 construct: host or cells: PathHunter CHO-K1 GPR120 β-Arrestin Cell Line
# T2 sequence (Q5NUL3 1-377 isoform Q5NUL3-1): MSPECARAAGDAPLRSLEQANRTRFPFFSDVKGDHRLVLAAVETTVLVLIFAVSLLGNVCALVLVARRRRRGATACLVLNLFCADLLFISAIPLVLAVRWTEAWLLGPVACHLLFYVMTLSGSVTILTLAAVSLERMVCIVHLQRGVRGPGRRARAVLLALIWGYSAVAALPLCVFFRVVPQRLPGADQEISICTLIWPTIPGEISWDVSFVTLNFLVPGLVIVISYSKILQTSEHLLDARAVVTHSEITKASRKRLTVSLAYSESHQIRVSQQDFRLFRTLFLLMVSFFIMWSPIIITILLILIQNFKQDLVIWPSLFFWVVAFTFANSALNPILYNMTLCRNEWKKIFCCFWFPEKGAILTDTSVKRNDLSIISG
# T2 sequence (P32121 whole entry partner): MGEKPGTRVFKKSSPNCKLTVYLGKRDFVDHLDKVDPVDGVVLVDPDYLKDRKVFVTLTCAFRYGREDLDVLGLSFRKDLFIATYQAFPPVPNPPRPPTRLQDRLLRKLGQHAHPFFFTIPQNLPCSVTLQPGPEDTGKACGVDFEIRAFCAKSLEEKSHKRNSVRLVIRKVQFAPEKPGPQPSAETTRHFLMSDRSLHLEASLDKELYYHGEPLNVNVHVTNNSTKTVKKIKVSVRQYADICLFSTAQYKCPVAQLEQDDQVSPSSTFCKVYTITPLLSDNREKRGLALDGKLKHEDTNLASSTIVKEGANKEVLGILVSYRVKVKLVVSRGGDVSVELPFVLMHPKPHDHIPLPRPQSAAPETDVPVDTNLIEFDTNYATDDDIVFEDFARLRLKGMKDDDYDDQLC
# Text: The binding of an agonist (medium/long chain fatty acids or small molecule agonists) to the G-protein-coupled receptor GPR120 activates phospholipase C, leading to release of intracellular Ca^+2 through the generation of inositol 1,4,5-trisphosphate (InsP3 or IP3). GPR120 activation can also trigger intracellular signaling via recruitment of β-Arrestin. In the present method, agonist-induced activation of the human GPR120 receptor is monitored through the use of PathHunter CHO-K1 GPR120 β-Arrestin Cell Line engineered by DiscoveRx, as detailed below. The cell lines are designed to co-express both the ProLink/Enzyme Donor (PK)-tagged GPCR and the Enzyme […] (EA)-tagged Beta-Arrestin fusion proteins. Upon GPR120 receptor stimulation/activation, the EA-tagged β-Arrestin portion is translocated to the tagged receptor, where the two enzyme fragments are brought within close proximity. Under these conditions, these fragments can interact and form an active Beta-gal enzyme complex through Enzyme Fragment Complementation (EFC). This active Beta-gal complex can enzymatically hydrolyse the substrate to produce a detectable light signal; therefore, activation as a function of agonist concentration can be expressed as an EC50 value to determine relative compound activities. This in vitro assay therefore serves to assess compound agonist activity of the GPR120.
# In Procedure β-arrestin A, the cell used were PathHunter CHO-K1 GPR120 β-Arrestin Cell Line, expressing the long form of human GPR120 (Genbank accession number NM_181745), with 3000 cells per well.
# The selected CHO-K1 GPR120 β-Arrestin cells were cultured in Ham's F12 media supplemented with 10% fetal bovine serum (FBS), 1% Glutamine, 1×p/s, 800 μg/ml G418 and 300 μg/ml Hygromycin B (for selection). Cell stocks were maintained and grown in a sub-confluent state using standard cell culture procedures. The day before the experiment, the cells were harvested with non-enzymatic cell dissociation buffer and re-suspended in complete growth media at the desired concentration. A Corning 384-plate was then seeded with the proper number of cells in a volume of 25 μL, per well. The seeded plates were incubated overnight at 37° C.
# On the day of the experiment, the Assay Buffer containing (a) HBSS with Ca^++ and Mg^++, (b) 20 mM HEPES, and (c) 0.1% BSA stabilizer (pH 7.4) was prepared. The growth medium was gently removed from the cell plates and 20 μL of Assay Buffer added to each well. The plate was then incubated at 37° C. for 60 mins. Test compounds were serially diluted in Assay Buffer to desired concentrations (more particularly, to one or more of the following μM concentrations: 25 μM, 12.5 μM, 6.25 μM, 3.125 μM, 1.562 μM, 0.781 μM, 0.391 μM, 0.195 μM, 0.098 μM, 0.049 μM, 0.024 μM, 0.012 μM). Five μl of compound dilution was then added to each well and the plate incubated at 37° C. for 90 mins. The detection reagents were prepared according to the manufacture's instruction. Twelve μL of the detection reagents were added to each well and the plate incubated at room temperature for 60 mins.
# The plates were read on an EnVision instrument, using Protocol name: Luminescence, Plate type: 384 Costar, Measurement height: 3 mm, Measurement time: 1 s, Aperture: 384 Plate aperture. The % activity relative to the positive control was calculated using the following equation:
# The % Activity values were plotted versus the concentration of test compound and fitted to a sigmoidal dose-response curve with a Hill slope=1 (fixed value) using nonlinear regression with GraphPad Prism 5.0 to calculate the EC50 values. The Fitting Equation was: Y=Bottom+(Top−Bottom)/(1+10^((LogEC50−X)*HillSlope)), where X is the log of the concentration and Y is the response.
# Human GPR120 short form [3] = target: T1, Human GPR120 short form; experiment: Human GPR120 calcium flux assay, Procedure Calcium A; conditions: HEK-293 cells expressing human GPR120 short form, 2500 cells/well, FLIPR
# How it was run: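 HEK293 cells stably expressing the human GPR120 short splice variant (NM_001195755.1) were seeded at 2500 cells/well, serum-starved 1 h and loaded with Fluo-4 NW plus probenecid. Compounds (100–0.012 μM solutions, 0.2% final DMSO) were added, and FLIPR calcium flux was read for 300 s. EC50 came from a variable-slope fit (Hill <2) of Fmax−Fmin.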
pEC50 (Human GPR120 short form [1]),pEC50 [2],pEC50 (Human GPR120 short form [3]),SMILES
7.00,6.17,6.35,"O=C(O)CCc1cc(F)c(OCc2c(C(F)(F)F)ccn2-c2ccccc2)c(F)c1 [Compound 38, 3-(3,5-difluoro-4-((1-phenyl-3-(trifluoromethyl)-1H-pyrrol-2-yl)methoxy)phenyl)propanoic acid]"
7.18,6.62,6.43,"Cc1ccc(-n2ccc(C(F)(F)F)c2COc2ccc(CCCO)c(F)c2F)cn1 [Compound 47, 3-(2,3-difluoro-4-[[1-(6-methylpyridin-3-yl)-3-(trifluoromethyl)-1H-pyrrol-2-yl]methoxy]phenyl)propan-1-ol trifluoroacetic acid]"
6.93,6.45,6.40,"CCc1ccc(-n2ccc(C(F)(F)F)c2COc2c(F)cc(CCC(=O)O)cc2F)cc1 [Compound 32, 3-(4-[[1-(4-ethylphenyl)-3-(trifluoromethyl)-1H-pyrrol-2-yl]methoxy]-3,5-difluorophenyl)propanoic acid]"
6.79,6.03,6.05,"CCc1ccc(-n2ccc(C(F)(F)F)c2COc2ccc(CCC(=O)O)c(F)c2F)cn1 [Compound 58, 3-(4-[[1-(6-ethylpyridin-3-yl)-3-(trifluoromethyl)-1H-pyrrol-2-yl]methoxy]-2,3-difluorophenyl)propanoic acid]"
7.08,6.53,6.09,"Cc1ccc(-n2ccc(C(F)(F)F)c2COc2ccc(CCC(=O)O)c(F)c2F)cc1 [Compound 42, 3-(2,3-difluoro-4-[[1-(4-methylphenyl)-3-(trifluoromethyl)-1H-pyrrol-2-yl]methoxy]phenyl)propanoic acid]"
6.84,6.92,6.35,"CCc1ccc(-n2ccc(C(F)(F)F)c2COc2ccc(CCC(=O)O)c(C)c2C)cc1 [Compound 36, 3-(4-[[1-(4-ethylphenyl)-3-(trifluoromethyl)-1H-pyrrol-2-yl]methoxy]-2,3-dimethylphenyl)propanoic acid]"
7.27,7.34,6.66,"COc1ccc(-n2ccc(C(F)(F)F)c2COc2ccc(CCCO)c(F)c2F)cc1 [Compound 27, 3-(2,3-Difluoro-4-{[1-(4-methoxyphenyl)-3-(trifluoromethyl)-1H-pyrrol-2-yl]methoxy}phenyl)propan-1-ol]"
6.58,6.55,6.07,"Cc1c(CCCO)ccc(OCc2c(C(F)(F)F)ccn2-c2ccccc2)c1C [Compound 19, 3-(2,3-Dimethyl-4-{[1-phenyl-3-(trifluoromethyl)-1H-pyrrol-2-yl]methoxy}phenyl)propan-1-ol]"
6.55,7.06,6.15,"OCCCc1ccc(OCc2c(C(F)(F)F)ccn2-c2ccc(Br)cc2)c(F)c1F [Compound 21, 3-(4-{[1-(4-Bromophenyl)-3-(trifluoromethyl)-1H-pyrrol-2-yl]methoxy}-2,3-difluorophenyl)propan-1-ol]"
7.06,5.96,6.00,"Cc1c(CCC(=O)O)ccc(OCc2c(C(F)(F)F)ccn2-c2ccc(Cl)cc2)c1C [Compound 15, 3-(4-{[1-(4-Chlorophenyl)-3-(trifluoromethyl)-1H-pyrrol-2-yl]methoxy}-2,3-dimethylphenyl)propanoic acid]"
7.17,7.21,6.65,"COc1ccc(-n2ccc(C(F)(F)F)c2COc2c(F)cc(CCCO)cc2F)cc1 [Compound 31, 3-(3,5-Difluoro-4-{[1-(4-methoxyphenyl)-3-(trifluoromethyl)-1H-pyrrol-2-yl]methoxy}phenyl)propan-1-ol]"
6.79,6.14,6.09,"O=C(O)CCc1ccc(OCc2c(Br)ccn2-c2ccc(Cl)cc2)c(F)c1F [Compound 6, 3-(4-{[3-Bromo-1-(4-chlorophenyl)-1H-pyrrol-2-yl]methoxy}-2,3-difluorophenyl)propanoic acid]"
